Laboratory results taken from paper PMC5154303, “Flavonol and imidazole derivatives block HPV16 E6 activities and reactivate apoptotic pathways in HPV^+ cells” (Cell Death & Disease, 2016).

Key:
Format in all cases: cell-based, human
[1] = test system: SiHa cells; test: Sensitization of SiHa cells to doxorubicin (MTT); conditions: 100 μM myricetin or 50 μM spinacine 4 h prior to doxorubicin, versus negative control
Protocol: Figure 3 (a) HPV^+ SiHa cells are resistant to TRAIL-induced apoptosis as compared with the human osteosarcoma cell line U2OS. Cells (2 × 10^4 cells per well) were seeded into a 96-well plate, allowed to incubate overnight, and then treated with the indicated concentration of TRAIL in the presence of cycloheximide (5 μg/ml). The viability of cells was measured after overnight incubation using the MTT assay; the viability of cells untreated with TRAIL was set at 100% for each group. (b) The indicated concentrations of three small molecules were added to SiHa cells, and an MTT assay was preformed after overnight incubation. The viability of cells untreated with small molecules was set as 100%. (c) The indicated concentrations of myricetin or spinacine were added 4 h prior to TRAIL (100 ng/ml) in the presence of cycloheximide (5 μg/ml) and incubated at 37 °C overnight. […] Cell viability was measured after overnight incubation using the MTT assay, and the viability of cells untreated with either myricetin or spinacine was set at 100%. […]
(§1) The extracellular domain of human TRAIL was cloned into a pTriEx expression plasmid containing N-terminal Hisx6 tag. […] All experiments were repeated at least three times (three biological replicates, carried out on different days), with each experimental group measured in triplicate within each of these individual experiments. […]

[2] = test system: caspase 8; test: Caspase 8 level in SiHa cells by immunoblot; conditions: 24 h
Protocol: Figure 6 Treatment with myricetin and spinacine (5) increases cellular levels of caspase 8 and p53. (a) SiHa cells (1 × 10^6 per well) were seeded into a six-well plate and allowed to incubate overnight. The indicated concentrations of myricetin and spinacine were added, and then cells were incubated for 24 h. Cells were then washed in 1 × PBS and then harvested, and the resulting level of caspase 8 was measured by immunoblot. (b) SiHa and C33A cells (1 × 10^6 per well) were seeded into a six-well plate and allowed to incubate overnight. In all, 200 μM of myricetin and 100 μM spinacine were added together with 4 μg/ml mitomycin C and incubated for 24 h. The resulting level of p53 was measured by enzyme-linked immunosorbent assay, and the level of p53 found in untreated cells was set at 100%. Experiments were performed in triplicate, and error bars indicate the S.D.
Cells (1 × 10^6) were collected and washed with PBS. All liquid was removed by centrifugation at 3000 r.p.m. for 5 min at 4 °C. […] Signals were measured using the Odyssey Infrared Imaging system (LI-COR Biosciences) and expressed in relative light units.

[3] = test system: UMSCC 29; test: Sensitization to doxorubicin in HPV− HNSCC line UMSCC 29 (MTT); conditions: HPV− #29, compound 0–12.5 μM, 2 μM doxorubicin
Protocol: Figure 8 Myricetin and spinacine (5) can re-sensitize HPV^+, but not HPV^−, HNSCC cell lines to treatment with doxorubicin. Two HPV^− (UMMSCC 29 and SCC 84) and three HPV^+ (UMSCC 47, UPCI-SCC90-UP-Clone 35, and UM-SCC47-TC Clone 3) head and neck cancer cell lines (2 × 10^4 cells per well) were seeded into 96-well plates and allowed to incubate overnight, and then cells were pretreated with myricetin or spinacine (0–12.5 μM) for 4 h. In all, 2 μM of doxorubicin was added, and the cells were allowed to incubate overnight. Cell viability was measured by MTT assay, and the viability of cells untreated with small molecules was set at 100%. Experiments were performed in triplicate, and error bars indicate the S.D.
as §1, with “tag. His-TRAIL was expressed in the E. coli BL-21 pLys strain and purified as previously described. Doxorubicin and cisplatin were purchased from Sigma. His-TRAIL, doxorubicin, and cisplatin were diluted in PBS to the desired concentration before using.” for “tag.”

| Structure (SMILES) | sensitivity of SiHa cells to doxorubicin [1] | caspase 8 level ([2]; myricetin at 100 and 200 μM) | response to doxorubicin in presence and absence of compound [3] | caspase 8 level ([2]; spinacine at 50 to 200 μM) |
| --- | --- | --- | --- | --- |
| O=c1c(O)c(-c2cc(O)c(O)c(O)c2)oc2cc(O)cc(O)c12 [Myricetin, myricetin, reference compound] | increased the sensitivity | increase | resistant |  |
| O=C(O)C1Cc2[nH]cnc2CN1 (stereo not drawn) [Spinacine (5), 4,5,6,7-tetrahydro-1H-imidazo[4,5–c]pyridine-6-carboxylic acid] | increased the sensitivity |  | resistant | increase |
